From ChEMBL document CHEMBL1130652, “Design, synthesis and biological activity of a pyrrolo [2,1-c][1,4]benzodiazepine (PBD)-distamycin hybrid” (Bioorg Med Chem Lett, 1998)
pIC50: −log10 of the molar value.

Experiments:
[1] = target: Nucleic Acid; assay: Inhibition of human estrogen receptor(ER) polymerase-chain reaction product; format: functional
[2] = test system: K562; assay: In vitro effect on human leukemia K562 cell proliferation; format: functional, cell-based

Structure (SMILES) | pIC50 [1] | pIC50 [2]
COC(=O)CCOc1cc2c(cc1OC)C(=O)N1CCC[C@H]1C=N2.Cn1cc(NC(=O)c2cc(NC(=O)c3cc(NC=O)cn3C)cn2C)cc1C(=O)NCCC(=N)N | 4.30 | 6.00
COC(=O)CCOc1cc2c(cc1OC)C(=O)N1CCC[C@H]1C=N2 | < 3.52 | 6.00
COc1cc2c(cc1OCCC(=O)Nc1cc(C(=O)Nc3cc(C(=O)Nc4cc(C(=O)NCCC(=N)N)n(C)c4)n(C)c3)n(C)c1)N=C[C@@H]1CCCN1C2=O | 5.10 | 6.70
Cn1cc(NC(=O)c2cc(NC(=O)c3cc(NC=O)cn3C)cn2C)cc1C(=O)NCCC(=N)N [STALLIMYCIN] | 4.30 | 5.30
